Earlier results in patent publication US20260137744A1, “MELATONIN-ENRICHED COMPOSITION OF PISTACIA VERA (PISTACHIO) AND A METHOD OF PREPARATION THEREOF” (Network Nutrition Pty Limited, priority 2024, published 2026).

- peak concentration in the bloodstream, time after oral dosage (after oral dosage): approximately 50 minutes
- bioavailability (oral melatonin, average, varies significantly among individuals): around 15%
SMILES: COc1ccc2[nH]cc(CCNC(C)=O)c2c1 [melatonin]
